Laboratory results published in PubChem BioAssay AID850 (SRMLSC, 2007).
Active and inactive are the calls of the source. The rule behind the calls is not given here.

Tests used:
[1] = yeast lifespan-shortening chemical project counter-assay, dose-response inhibition of growth under permissive conditions (AID 850); details: Saccharomyces cerevisiae growth inhibition, permissive control, measured here: maximum growth inhibition, stronger effect = higher value;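 note: growth read as optical density after one day of incubation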
[2] = tested on: Saccharomyces cerevisiae growth inhibition, permissive control; assay: as above

| Structure (SMILES) | IC50 [2] | inhibition ([1]; at 50 µM) | other results |
| --- | --- | --- | --- |
| Cc1[nH]n(-c2ccccc2)c(=O)c1/C=N/N1C(=O)c2ccc3c4c(ccc(c24)C1=O)CC3 | > 100 µM (inactive) |  | inhibition ([1]; at 0.781 µM): 8.51% |
| Cc1sc2ncnc(N/N=C/c3ccccc3O)c2c1C | 32.2 µM | 94.2% |  |
| Cn1c2ccccc2c2cc(C(=O)O)ccc21 | > 100 µM (inactive) | 23.6% |  |
| CCCCOC(=O)Sc1nc2ccccc2o1 | 14.5 µM | 101% |  |
| Oc1c(I)cc(Cl)c2cccnc12 | 16.7 µM | 98% |  |
| CCOCCCNC(=O)c1ccc(Br)cc1 | > 100 µM (inactive) |  | inhibition ([1]; at 1.563 µM): 27.6% |
| Cc1cc(C)nc(N/N=C/C2=C(N3CCOCC3)C(=C\c3ccc(Cl)cc3)/CC2)n1 | > 100 µM (inactive) |  | inhibition ([1]; at 3.125 µM): 5.26% |
| C=CCc1c(C)c(C#N)c2nc3ccccc3n2c1NCCN(C)C | 12.5 µM | 98.6% |  |
| COc1cc(CNCCN2CCOCC2)ccc1OCc1cccc(Cl)c1 | > 100 µM (inactive) |  | inhibition ([1]; at 25 µM): 12.3% |
| CCOC(=O)C1=Nc2ccccc2C1=[N+]=[N-] | 5.45 µM | 99.2% |  |
| O=[N+]([O-])c1ccc(CN2CCCCCC2)s1 | > 100 µM (inactive) |  | inhibition ([1]; at 25 µM): 28.2% |
| CC(=O)Oc1ccc(N2C(=O)C3C(C2=O)C2(C)C=CC3(C)O2)cc1 (configuration not stated) | > 100 µM (inactive) |  | inhibition ([1]; at 0.195 µM): 3.93% |
| CNC(=O)Oc1cccc(-c2cn3cc(OC(=O)NC)ccc3n2)c1 | 6.45 µM | 97.6% |  |
| Cc1ccc(N=Cc2cccc(O)c2O)c(C)c1 | 16 µM | 99.4% |  |
| O=C(c1ccc(C(=O)N2CCCc3ccccc32)s1)N1CCCc2ccccc21 | 34.1 µM | 87% |  |
| COc1ccc(CNC(=O)CSc2nnc(-c3ccc(NC(C)=O)cc3)n2C)cc1 | > 100 µM (inactive) |  | inhibition ([1]; at 3.125 µM): 26.8% |
| Nc1ccc(SC(F)(F)F)cc1C(=O)c1ccccc1 | > 100 µM (inactive) |  | inhibition ([1]; at 0.391 µM): 14.9% |
| Cc1ccc(-c2nn3c(C)nnc3s2)cc1NC(=O)c1ccc(OC(C)C)cc1 | > 100 µM (inactive) |  | inhibition ([1]; at 0.098 µM): 17.3% |
| Cc1ccc(-c2nc3sc(C(N)=O)c(N)c3c3c2CCCC3)cc1 | > 100 µM (inactive) | 14.4% |  |
| COCCN1CSC(=S)N(Cc2ccco2)C1 | 34.5 µM | 64.7% |  |
| O=[N+]([O-])c1cccc(/C=N/n2cnnc2)c1O | 21 µM | 76.8% |  |

| Structure (SMILES) | IC50 [2] | inhibition ([1]; at 50 µM) | other results |
| --- | --- | --- | --- |
| CCn1ncc(C2=NOC(C(=O)Nc3c(C)n(C)n(-c4ccccc4)c3=O)C2)c1C (configuration not stated) | > 100 µM (inactive) |  | inhibition ([1]; at 0.195 µM): 6.76% |
| CN1CSC(=S)N(C)C1 | 12.6 µM | 97% |  |
| Cc1ccc(N/N=C/c2cccnc2)cc1 | 13 µM | 97% |  |
| N#CC(c1cccc(Cl)c1)c1ccc2c(C(F)(F)F)cc(C(F)(F)F)nc2n1 (configuration not stated) | > 100 µM (inactive) | 4.48% |  |
| CCc1cc(-c2n[nH]c(C)c2Oc2ccc(C(C)C)cc2)c(O)cc1O | 35 µM | 75.6% |  |
| O=C1c2ccccc2C(=O)c2c1cccc2N1CCOCC1 | > 100 µM (inactive) |  | inhibition ([1]; at 0.195 µM): 13.5% |
| O=C(Oc1c(Cl)cc(Cl)c2cccnc12)c1cccs1 | 12.7 µM |  | inhibition [1]: 100% |
| CCc1ccc2c(c1)C1(NN=C(c3ccccc3)S1)C(=O)N2 (configuration not stated) | 27.5 µM | 97.5% |  |
| Cc1cc([N+](=O)[O-])ccc1-c1ccc(C2Nc3ccccc3C(=O)N2O)o1 (configuration not stated) | > 100 µM (inactive) |  | inhibition ([1]; at 0.781 µM): 3.97% |
| Cc1ccc(OC(=S)Nc2ccc(O)cc2)cc1 | 16.3 µM | 99.6% |  |
| COc1ccccc1-c1nnc(NC(=O)C(C)SC2=NCCS2)s1 (configuration not stated) | > 100 µM (inactive) |  | inhibition ([1]; at 12.5 µM): 16.8% |
| CCCCNC(=S)NCc1ccc2c(c1)cc(C)n2C | > 100 µM (inactive) |  | inhibition ([1]; at 0.781 µM): 0.79% |
| CCCCCCCCCCCCCCCC(O)C(N)CO (configuration not stated) | 24.8 µM | 99.2% |  |
| COc1cccc2sc(Nc3nc(-c4ccccn4)cs3)nc12 | 20 µM | 77.8% |  |
| COc1ccc(-c2n[nH]c(C(F)(F)F)c2-c2cc3ccccc3o2)c(O)c1 | 36.6 µM | 53.6% |  |
| CCC1C(=O)N=C(SCC(=O)Nc2ccccc2)NC1=O (configuration not stated) | 46.5 µM | 52.5% |  |
| Cc1nc2cc3ccccc3cc2c(=O)[nH]1 | > 100 µM (inactive) |  | inhibition ([1]; at 0.781 µM): 13.9% |
| OC(CN1CCN(c2ccccn2)CC1)Cn1c2ccc(Cl)cc2c2cc(Cl)ccc21 (configuration not stated) | 30.9 µM | 98.9% |  |
| CCc1cc2c(=O)[nH]c(-c3ccccn3)nc2s1 | 23.6 µM | 86.2% |  |
| CCCCCCc1ccc(-c2ncc(N)cn2)cc1 | 22.9 µM | 99.2% |  |
